Columns and labels:
Format in all cases: cell-based
TRPV1 [1] = target: T1, TRPV1 (Homo sapiens, UniProt Q8NER1); assay: Intramolecular BRET assay, YFP-TRPV1-Luc probe in HEK293T cells; conditions: for Effect on CAPS-induced BRET increase: intramolecular test
T1 construct: expressed in transfected cells; host or cells: HEK293T
Excerpt: They were referred as YFP and Luc for short in the rest of the manuscript. The cDNA of Luc and YFP were first cloned together using a three-piece ligation in the BamHI/XhoI site of pcDNA3.1(+) (Invitrogen, Carlsbad, Calif., USA), yielding two expression vectors pcDNA3.1 YFP-Luc where YFP was cloned in-fusion at the N-terminal of Luc, and pcDNA3.1 Luc-YFP where Luc was cloned in-fusion at the N-terminal of YFP. Both YFP and Luc were amplified by PCR from the pcDNA3-YFP-EPAC-Luc vector. Luc was cloned either at the N-terminal of YFP as a HindIII-EcoRI fragment (primers used: “Luc_HindIII_ATGN-term sense” and “Luc_no Stop_EcoRI_N-term antisense”) or at the COOH-terminal of YFP as an EcoRI-XhoI fragment (primer used: “Luc_EcoRI_ATG_C-term sense” and “Luc_XhoI_Stop_C-term antisense”). In parallel, YFP was cloned either at the N-terminal of Luc as a HindIII-EcoRI fragment (primers used: “YFP_HindIII_ATG_N-term sense” and “YFP_no Stop_EcoRI_N-term antisense”) or at the COOH-terminal of Luc as a EcoRI-XhoI fragment (primer used: “YFP_EcoRI_ATG_C-term sense” and “YFP_XhoI_Stop_C-term antisense”). The sequence joining Luc and YFP sequence encoded […] NO: 18) as a linker, and contained an AgeI restriction site. The YFP-hTRPV1-Luc expression vector was obtained by subcloning the human TRPV1 cDNA from the pDONR201-hTRPV1 vector (Harvard Medical School PlasmID Repository, clone HsCD00081472) as an EcoRI PCR fragment in the EcoRI site of the vector pcDNA3.1 YFP-Luc (primer used: “hTRPV1_EcoRI_Fus_Sense” and “hTRPV1_EcoRI_Fus_antisense”). The hTRPV1-Luc expression vector was obtained by subcloning the cDNA of hTRPV1 as a HindIII-EcoRI fragment in place of the YFP in the HindIII-EcoRI site of the pcDNA3.1 YFP-Luc vector (primer used: “hTRPV1_HindIII_ATG_Sense” and “hTRPV1_EcoRI_Fus_antisense”). The Luc-hTRPV3 expression vector was obtained by subcloning the cDNA of hTRPV3 (Harvard Medical School PlasmID Repository, clone HsCD00341603) as a AgeI-XhoI fragment in place of the YFP in the AgeI-XhoI sites of the pcDNA3.1 Luc-YFP vector (primer used: “hTRPV3_AgeI_ATG_Sense” and “[…]_XhoI_antisense”). The hTRPV4-Luc expression vector was obtained by subcloning the cDNA of hTRPV4 as a BamHI-AgeI fragment in place of the YFP in the BamHI-AgeI site of the pcDNA3.1 YFP-Luc vector (primer used: “hTRPV4_BamHI_ATG_Sense” and hTRPV4_AgeI_Fus_antisense”). In each case, the sequence joining the cDNA of interest and either Luc or YFP sequence encoded […] NO: 18) as a linker. HEK293T cells were maintained in Dulbecco's modified Eagle's medium-high Glucose (DMEM) (D6429, Sigma) supplemented with 10% fetal bovine serum, 100 units mL-1 penicillin and streptomycin. Twenty-four hours before transfection, cells were seeded at a density of 500,000 cells in 6-well dishes. Transient transfections were performed using polyethylenimine (PEI, linear, Mr 25,000; catalogue number 23966 Polysciences, Inc., Warrington, Pa., USA) with a PEI:DNA ratio of 4:1. […] The amount of transfected DNA was completed to a total of 2 μg with pcDNA3.1 empty vector. After overnight incubation, transfected cells were then detached, resuspended in DMEM w/o red phenol (Ref 21063-029, ThermoFisher scientific, Waltham, Mass., USA) and replated at a density of 10^5 cells per well in 96-well white plates with clear bottoms (Greiner Bio one, Courtaboeuf, France) pre-treated with D-polylysine (Sigma) for reading with the Tristar2 luminometer (Berthold Technologies, Bad Wildbad, Germany) or onto 12 mm diameter glass coverslips ([…], Braunschweig, Germany) treated with poly-L-lysine for the reading with the SpectraPro 2300i spectrometer (Acton Optics, Acton, Mass., USA). Cells were left in culture for 24 h before being processed for the BRET assay.

TRPV1 [2] = target: T1, TRPV1; assay: Three-color spectral BRET, TRPV1-Luc/mAmetrine-CaM component in mixed HEK293T cells; conditions: 20 μM CAPS injected at 75 seconds, real time, mixed cell population
Protocol: Results represent the mean of three independent experiments.
Full BRET spectra were acquired using an optical fiber linked to a Spectra Pro 2300i spectrometer, equipped with a liquid-nitrogen-cooled CCD camera for recording the full visible spectrum (Acton Optics, Acton, Mass., USA). The bioluminescent signal was recorded from transfected cells seeded onto a glass coverslip and placed into a white opaque measurement chamber made of Teflon® and containing an isotonic solution (NaCl 145 mM, KCl 5 mM, KH2PO4 4 mM, CaCl2 1 mM, MgSO4 1 mM, Glucose 10 mM). The temperature of the cell buffer was regulated using an Eppendorf® ThermoStat Plus and measured in real time using a fiber-optic temperature measurement Luxtron 812 system (Lumasense technologies, Santa Clara, Calif., USA).
Using the LabView programming language (National Instruments, Austin, Tex., USA), an interface was developed to run the acquisition of the bioluminescent spectra and perform real-time spectral decomposition of the BRET signal into its various components. The experimental emission spectra of Luc, YFP, mAmetrine, aquamarine, and Lss-mOrange were first obtained experimentally using a Cary Eclipse Fluorimeter (Agilent Technology, Santa Clara, Calif., USA) (FIG. 3). Each spectrum was then fitted as a sum of Gaussian curves based on Eq.3.: […]

TRPV1 [3] = target: T1, TRPV1; assay: Calcium assay in transfected HEK293T cells; conditions: cells expressing TRPV1, YFP-TRPV1-Luc or TRPV1-Luc; not in mock-transfected cells
Protocol: TRP channel activation was evaluated in transfected HEK293T human embryonic-kidney cells. […] For this purpose, we measured calcium entry in mock-transfected or transfected HEK293T cells with either native TRPV1 or the BRET constructs, YFP-TRPV1-Luc or TRPV1-Luc.

[4] = temperature rise from 25 to 42° C.

T1 sequence (Q8NER1 whole entry): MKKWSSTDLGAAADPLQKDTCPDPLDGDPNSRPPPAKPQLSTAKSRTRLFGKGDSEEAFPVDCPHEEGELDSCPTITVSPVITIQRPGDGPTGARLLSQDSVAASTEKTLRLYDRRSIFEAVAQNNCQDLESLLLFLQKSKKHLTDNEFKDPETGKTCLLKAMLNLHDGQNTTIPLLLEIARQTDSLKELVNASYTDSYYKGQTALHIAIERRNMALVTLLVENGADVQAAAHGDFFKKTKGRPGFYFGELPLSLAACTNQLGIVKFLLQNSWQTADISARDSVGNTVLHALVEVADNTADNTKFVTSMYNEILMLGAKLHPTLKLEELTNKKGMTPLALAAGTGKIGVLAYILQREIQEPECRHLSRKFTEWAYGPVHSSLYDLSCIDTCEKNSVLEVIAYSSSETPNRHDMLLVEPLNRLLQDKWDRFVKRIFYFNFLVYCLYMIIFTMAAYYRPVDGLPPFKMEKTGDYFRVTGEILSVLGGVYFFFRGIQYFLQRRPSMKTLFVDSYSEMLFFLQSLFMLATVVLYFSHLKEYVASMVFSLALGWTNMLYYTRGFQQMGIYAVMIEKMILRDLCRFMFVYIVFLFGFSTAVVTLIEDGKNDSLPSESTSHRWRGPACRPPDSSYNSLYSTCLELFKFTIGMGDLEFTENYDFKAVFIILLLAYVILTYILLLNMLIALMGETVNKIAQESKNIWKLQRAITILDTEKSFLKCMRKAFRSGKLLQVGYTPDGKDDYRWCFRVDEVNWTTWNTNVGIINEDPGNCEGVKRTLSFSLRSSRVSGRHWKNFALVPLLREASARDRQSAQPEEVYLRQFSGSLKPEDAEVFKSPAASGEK

SMILES | Effect on CAPS-induced BRET increase (TRPV1 [1]) | TRPV1 BRET signal in three-color assay (TRPV1 [2]) | Change of basal BRET signal (TRPV1 [1]) | Change in CAPS potency on temperature rise (TRPV1 [1]; [4]) | Change in maximal efficacy on temperature rise (TRPV1 [1]; [4]) | Cytosolic calcium concentration (TRPV1 [3]) | Temperature-dependent behaviour of the probe after preincubation (TRPV1 [1]; heating 25 to 50° C.)
CC(=O)Nc1nc2c(Oc3cc(-c4ccc(C(F)(F)F)cc4)ncn3)cccc2s1 [AMG517] | inhibited |  |  |  |  |  | 
COc1cc(CNC(=O)CCCC/C=C/C(C)C)ccc1O [CAPS, Capsaicin] |  | time-dependent increase | increased with a first order kinetic | leftward shift | increase | rapid, maintained increase | 
Oc1cc2c(cc1O)CN(C(=S)NCCc1ccc(Cl)cc1)CCC2 [CPZ, Capsazepine] | inhibited |  |  |  |  |  | completely modified the temperature-dependent behaviour
